pKi: −log10 of the molar value. Converted amounts (≈) assume the structure as drawn. Like-named read-outs stand apart in the source and are kept apart here.
Columns and labels:
[1] = Water Solubility Assay (measured in pH 7.8 buffer); format: physicochemical; settings: for solubility at 18 h: kinetic from dmso stock;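 on all read-outs here: precipitation onset detected as rise in absorbance at 650 nm across increasing concentrations, after shaking for 18 h, blank wells receiving DMSO only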
Description: The aqueous solubility of a compound of Formula I in buffer (pH 7.8) was measured by recording the onset of precipitation of the compound as a function of increasing concentration. The onset of precipitation, if it occurred, was detected by an increase in absorbance at 650 nm.
Assay Buffer: 35 mM HEPES pH 7.8
Stock solutions of Control and Test Compounds: 10 mM in 100% DMSO
10 mM stock solutions of control and test compounds were prepared in 100% DMSO.
Assay buffer (247.5 μl) was placed into flat bottomed transparent 96-well plate. For blank samples DMSO (2.5 μl) was added. For test and control samples 2.5 μl of the appropriate DMSO dilution stocks were added to the appropriate well. All test and control compounds were performed in triplicate.
The plates were sealed with adhesive plate seal and shaken at 250 rpm at 25° C. for 18 h on a plate shaker.
After incubation the plate seals were taken off and any bubbles observed in wells removed. The plates were read on a SpectraMaxM5 with a 5 s pre-shake at 650 nm.
Data files were transferred to the appropriate worksheet and the solubility range of the compounds was calculated from the data.

[2] = target: Human recombinant cyclophilin A (Cyp A) (Homo sapiens, UniProt P62937); experiment: Protease-free PPIase assay;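 further: cis to trans isomerization of SUC-AAPF-pNA by 2 nM enzyme, read as absorbance at 330 nm over 300 s at 10 °C, catalytic rate corrected for uncatalyzed background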
Human recombinant cyclophilin A (Cyp A), sequence (P62937 whole entry): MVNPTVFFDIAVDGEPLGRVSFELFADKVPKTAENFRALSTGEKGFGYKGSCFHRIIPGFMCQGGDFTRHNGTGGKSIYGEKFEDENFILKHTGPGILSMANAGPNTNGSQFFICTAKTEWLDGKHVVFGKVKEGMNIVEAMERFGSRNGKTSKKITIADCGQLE

Structure (SMILES)	pKi [2]	solubility at 18 h ([1]; 25 °C, pH 7.8, aqueous buffer) [µM]	further results
CC[C@H]1NC(=O)[C@@H]([C@H](O)[C@H](C)CCCCCN2CCOCC2)N(C)C(=O)[C@@H](C(C)C)N(C)C(=O)[C@@H](CC(C)C)N(C)C(=O)[C@@H](CC(C)C)N(C)C(=O)[C@H](C)NC(=O)[C@@H](C)NC(=O)[C@@H](CC(C)C)N(C)C(=O)[C@@H](C(C)C)NC(=O)[C@H](CC(C)C)N(C)C(=O)CN(C)C1=O [Compound C, [(6R,7R,8S)-7-Hydroxy-6-methyl-8-(methylamino)-1-N-morpholinyl-nonanoic acid]^1 cyclosporin A]	7.85		solubility at 18 h ([1]; 35 mM HEPES buffer pH 7.8, aqueous buffer, 35 mM HEPES pH 7.8, 1% DMSO, 25 °C, 18 h, read-out: Water Solubility Assay, concentration at which the compound remains in solution): > 100 µM
CS[C@@H]1C(=O)N(C)[C@@H](CC(C)C)C(=O)N[C@H](C(C)C)C(=O)N(C)[C@H](CC(C)C)C(=O)N[C@H](C)C(=O)N[C@@H](C)C(=O)N(C)[C@H](CC(C)C)C(=O)N(C)[C@H](CC(C)C)C(=O)N(C)[C@H](C(C)C)C(=O)N(C)[C@H]([C@H](O)[C@H](C)CCN2CCOCC2)C(=O)N[C@H](C(C)C)C(=O)N1C [Compound AM, [(3R,4R,5S)-4-Hydroxy-3-methyl-5-(methylamino)-1-morpholino-hexanoic acid]^1[(S)-thio-methyl-Sar]^3 cyclosporin D]	8.72	25 to 50 (≈ 33 to 66.1 µg/mL)	
CC[C@H]1NC(=O)[C@@H]([C@H](O)[C@H](C)CCN2CCOCC2)N(C)C(=O)[C@@H](C(C)C)N(C)C(=O)[C@@H](CC(C)C)N(C)C(=O)[C@@H](CC(C)C)N(C)C(=O)[C@H](C)NC(=O)[C@@H](C)NC(=O)[C@@H](CC(C)C)N(C)C(=O)[C@@H](C(C)C)NC(=O)[C@H](CC(C)C)N(C)C(=O)[C@@H](SC(C)C)N(C)C1=O [Compound I, [(3R,4R,5S)-4-Hydroxy-3-methyl-5-(methylamino)-1-N-morpholino-hexanoic acid]^1[(S)-thio-isopropyl-Sar]^3 cyclosporin A]	8.11	25 to 50 (≈ 33.4 to 66.8 µg/mL)	
CC[C@H]1NC(=O)[C@@H]([C@H](O)[C@H](C)CCN2CC3CCC(C2)O3)N(C)C(=O)[C@@H](C(C)C)N(C)C(=O)[C@@H](CC(C)C)N(C)C(=O)[C@@H](CC(C)C)N(C)C(=O)[C@H](C)NC(=O)[C@@H](C)NC(=O)C(CC(C)C)N(C)C(=O)[C@@H](C(C)C)NC(=O)[C@H](CC(C)C)N(C)C(=O)[C@@H](C)N(C)C1=O (stereo partly drawn) [Compound DV, [(3R,4R,5S)-4-Hydroxy-3-methyl-5-(methylamino)-1-(8-oxa-3-aza-bicyclo[3.2.1]oct-3-yl)-hexanoic acid]^1[(R)-methyl-Sar]^3 cyclosporin A]	8.37	50 to 75 (≈ 65.1 to 97.6 µg/mL)	
CC[C@H]1NC(=O)[C@@H]([C@H](O)[C@H](C)CCN2CCC3(CC2)OCCO3)N(C)C(=O)[C@@H](C(C)C)N(C)C(=O)[C@@H](CC(C)C)N(C)C(=O)[C@@H](CC(C)C)N(C)C(=O)[C@H](C)NC(=O)[C@@H](C)NC(=O)C(CC(C)C)N(C)C(=O)[C@@H](C(C)C)NC(=O)[C@H](CC(C)C)N(C)C(=O)[C@@H](C)N(C)C1=O (stereo partly drawn) [Compound DY, [(3R,4R,5S)-1-(1,4-Dioxa-8-aza-spiro[4.5]dec-8-yl)-4-Hydroxy-3-methyl-5-(methylamino)-hexanoic acid]^1[(R)-methyl-Sar]^3 cyclosporin A]	7.89		solubility at 18 h ([1]; 35 mM HEPES buffer pH 7.8, 25 °C, aqueous buffer, pH 7.8 buffer, read-out: Water Solubility Assay): > 100 µM
CC[C@H]1NC(=O)[C@@H]([C@H](O)[C@H](C)CCCCCNCCOC)N(C)C(=O)[C@@H](C(C)C)N(C)C(=O)[C@@H](CC(C)C)N(C)C(=O)[C@@H](CC(C)C)N(C)C(=O)[C@H](C)NC(=O)[C@@H](C)NC(=O)[C@@H](CC(C)C)N(C)C(=O)[C@@H](C(C)C)NC(=O)[C@H](CC(C)C)N(C)C(=O)[C@@H](C)N(C)C1=O [Compound AI, [(6R,7R,8S)-7-Hydroxy-6-methyl-8-(methylamino)-1-N-(2-methoxy)ethylamino-nonanoic acid]^1[(R)-methyl-Sar]^3 cyclosporin A]	8.48	> 100	
CC[C@H]1NC(=O)[C@@H]([C@H](O)[C@H](C)CCN2CCOCC2)N(C)C(=O)[C@@H](C(C)C)N(C)C(=O)[C@@H](CC(C)C)N(C)C(=O)[C@@H](CC(C)C)N(C)C(=O)[C@H](C)NC(=O)[C@@H](C)NC(=O)[C@@H](CC(C)C)N(C)C(=O)[C@@H](C(C)C)NC(=O)[C@H](CC(C)C)N(C)C(=O)[C@@H](OC)N(C)C1=O [Compound B, [(3R,4R,5S)-4-Hydroxy-3-methyl-5-(methylamino)-1-N-morpholino-hexanoic acid]^1[(S)-methoxy-Sar]^3 cyclosporin A]	8.10	> 100	
CCC1NC(=O)C(C(O)C(C)CCN(CC)CC)N(C)C(=O)C(C(C)C)N(C)C(=O)C(CC(C)C)N(C)C(=O)C(CC(C)C)N(C)C(=O)C(C)NC(=O)C(C)NC(=O)C(CC(C)C)N(C)C(=O)C(C(C)C)NC(=O)C(CC(C)C)N(C)C(=O)C(C)N(C)C1=O [Compound M, [(3R,4R,5S)-4-hydroxy-3-methyl-5-(methylamino)-1-N-diethylamino-hexanoic acid]^1[(R)-Me-Sar]^3 cyclosporin A]			Water Solubility Assay, concentration at which the compound remains in solution ([1]; 35 mM HEPES pH 7.8, 1% DMSO, 25 °C, 18 h): 75 to 100 µM; pKi ([2]; read-out: Protease-free PPIase Assay Ki, cyclophilin A, 10 °C): 7.05
CC[C@H]1NC(=O)[C@@H]([C@H](O)[C@H](C)CCN(C)c2ccccn2)N(C)C(=O)[C@@H](C(C)C)N(C)C(=O)[C@@H](CC(C)C)N(C)C(=O)[C@@H](CC(C)C)N(C)C(=O)[C@H](C)NC(=O)[C@@H](C)NC(=O)[C@@H](CC(C)C)N(C)C(=O)[C@@H](C(C)C)NC(=O)[C@H](CC(C)C)N(C)C(=O)[C@@H](C)N(C)C1=O [Compound DD, [(3R,4R,5S)-4-Hydroxy-3-methyl-5-(methylamino)-1-(methyl-pyridin-2-yl-amino)-hexanoic acid]^1[(R)-methyl-Sar]^3 cyclosporin A]	8.32	25 to 50 (≈ 32.4 to 64.8 µg/mL)	
CC[C@H]1NC(=O)[C@@H]([C@H](O)[C@H](C)CCN(C)CCC(F)(F)F)N(C)C(=O)[C@@H](C(C)C)N(C)C(=O)[C@@H](CC(C)C)N(C)C(=O)[C@@H](CC(C)C)N(C)C(=O)[C@H](C)NC(=O)[C@@H](C)NC(=O)[C@@H](CC(C)C)N(C)C(=O)[C@@H](C(C)C)NC(=O)[C@H](CC(C)C)N(C)C(=O)[C@@H](C)N(C)C1=O [Compound DN, [(3R,4R,5S)-4-Hydroxy-3-methyl-5-(methylamino)-1-({3,3,3-trifluoropropyl}-methyl-amino)-hexanoic acid]^1[(R)-methyl-Sar]^3 cyclosporin A]	8.26	25 to 50 (≈ 32.9 to 65.8 µg/mL)	
CC[C@H]1NC(=O)[C@@H]([C@H](O)[C@H](C)CCN(C)CCS(N)(=O)=O)N(C)C(=O)[C@@H](C(C)C)N(C)C(=O)[C@@H](CC(C)C)N(C)C(=O)[C@@H](CC(C)C)N(C)C(=O)[C@H](C)NC(=O)[C@@H](C)NC(=O)[C@@H](CC(C)C)N(C)C(=O)[C@@H](C(C)C)NC(=O)[C@H](CC(C)C)N(C)C(=O)[C@@H](C)N(C)C1=O [Compound DE]	8.24	> 100	
CC[C@H]1NC(=O)[C@@H]([C@H](O)[C@H](C)CCN2CCOC[C@H]2C)N(C)C(=O)[C@@H](C(C)C)N(C)C(=O)[C@@H](CC(C)C)N(C)C(=O)[C@@H](CC(C)C)N(C)C(=O)[C@H](C)NC(=O)[C@@H](C)NC(=O)C(CC(C)C)N(C)C(=O)[C@@H](C(C)C)NC(=O)[C@H](CC(C)C)N(C)C(=O)[C@@H](C)N(C)C1=O (stereo partly drawn) [Compound DT, [(3R,4R,5S)-4-Hydroxy-3-methyl-5-methylamino-((R)-3-methyl-morpholin-4-yl)-hexanoic acid]^1[(R)-methyl-Sar]^3 cyclosporin A]	8.33	> 100	
